The text below walks through data of ChEMBL document CHEMBL1201862, “PubChem BioAssay data set” (2004).

Some test systems named below: 786-0; EKVX; HCT-15; IGROV-1; KM12; M14; MDA-MB-231; MDA-MB-435; MDA-N; NCI-H23; NCI-H522; OVCAR-5; SK-MEL-5; SN12C; SW-620; UACC-257; UACC-62; LOX IMVI; Malme-3M.
What all share (test): DTP human tumour cell line panel, 48 h

The GI50 is the concentration giving 50% growth inhibition.

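Growth conditions: 96-well plates. Treatment: test compound, 48 hours, 5 concentrations. Analysis: linear interpolation between bracketing concentrations; unreached endpoints set to highest concentration. GI50 is the concentration that inhibits growth by half.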 Active and inactive are the calls of the source. Cut-off read from the data, not from the text of the source: active = GI50 up to about 1.1 µM and inactive = higher. Bounds are passed on as bounds.

On to `COC1/C=C/C(C)C(C(C)C(OC)C(C)CCC(=O)C(C)C(CC(=O)O)OC)OC(=O)/C=C/C=C(\C)CC(OC)CC2=CC(=O)O[C@H](C2)C(C)C(OC)CC(OC)/C=C/C(C)C(OC)C1` (stereo partly specified), for which the GI50 with 786-0 was 0.286 µM (active); with EKVX, 0.396 µM (active); with HCT-15, 0.885 µM; with IGROV-1 it was 0.0783 µM (active); with KM12, 0.452 µM (active); with M14 it was 0.222 µM (active). Besides, the GI50 was 0.45 µM (active) in the experiment on MDA-MB-231; 0.265 µM (active) in the experiment on MDA-MB-435; 0.841 µM (active) in the experiment on MDA-N; 0.879 µM (active) with NCI-H23; 0.0259 µM (active) in the experiment with NCI-H522; 1.02 µM (active) in the experiment on OVCAR-5. Also, the GI50 in the experiment on SK-MEL-5 was 0.455 µM (active); with SN12C, 2.96 µM (inactive); in the experiment with SW-620, 0.348 µM (active); in the experiment on UACC-257 it was 0.449 µM (active); in the experiment on UACC-62 it was 0.315 µM (active).

As for `CN(C)CCC(/C=C/c1ccccc1)=N\Nc1ccc(Cl)c(Cl)c1`, the GI50 in the experiment on 786-0 is 2.69 µM (inactive); with EKVX, 3.66 µM (inactive); in the experiment on HCT-15 it was 3.6 µM; in the experiment with IGROV-1 it was 3.04 µM (inactive); in the experiment on KM12 it was 2.05 µM (inactive); in the experiment with LOX IMVI, 1.99 µM (inactive). The GI50 in the experiment on M14 is 2.72 µM (inactive); with Malme-3M, 14.2 µM (inactive); in the experiment with NCI-H23 it was 2.81 µM (inactive); with NCI-H522 it was 2.1 µM (inactive); with OVCAR-5, 3.33 µM (inactive); with SK-MEL-5, 4.49 µM (inactive). The GI50 is 3.52 µM (inactive) in the experiment on SN12C, 3.45 µM (inactive) in the experiment with SW-620, 3.33 µM (inactive) with UACC-257 and 2.55 µM (inactive) with UACC-62.

Regarding `O=C(/C=C/c1ccc(Cl)cc1)c1ccncc1`, the GI50 in the experiment with 786-0 was 76.2 µM (inactive); with EKVX, 64.4 µM (inactive); in the experiment on HCT-15, 44.5 µM; in the experiment with IGROV-1, 48.2 µM (inactive); in the experiment with KM12, 26 µM (inactive); in the experiment with LOX IMVI it was 27.1 µM (inactive). The GI50 is 36.1 µM (inactive) with M14; > 100 µM (inactive) in the experiment with Malme-3M; > 100 µM (inactive) with NCI-H23; 64.9 µM (inactive) in the experiment with NCI-H522; > 100 µM (inactive) with OVCAR-5; 53.2 µM (inactive) in the experiment with SK-MEL-5. For the same molecule, the GI50 in the experiment on SN12C was 51.4 µM (inactive); with SW-620 it was 78 µM (inactive); in the experiment with UACC-257, 43.5 µM (inactive); in the experiment on UACC-62, 76 µM (inactive).

On to `CCc1ccc2nccc(NCCCN(C)C)c2c1[N+](=O)[O-]`, for which the GI50 in the experiment with 786-0 is > 100 µM (inactive); in the experiment with EKVX it was > 100 µM (inactive); with HCT-15, greater than 10 µM; with IGROV-1, > 100 µM (inactive); in the experiment on KM12 it was > 100 µM (inactive); in the experiment with LOX IMVI, 62.7 µM (inactive). In addition, the GI50 was 28.8 µM (inactive) with M14; 56.1 µM (inactive) with MDA-MB-231; 62.2 µM (inactive) in the experiment on MDA-MB-435; 64.7 µM (inactive) in the experiment on MDA-N; > 100 µM (inactive) in the experiment on Malme-3M; > 100 µM (inactive) in the experiment with NCI-H23. Also, the GI50 was 74.6 µM (inactive) in the experiment on NCI-H522; 33.5 µM (inactive) with OVCAR-5; 44.3 µM (inactive) with SK-MEL-5; 60.4 µM (inactive) in the experiment with SN12C; > 100 µM (inactive) in the experiment with SW-620; 32.3 µM (inactive) in the experiment with UACC-257. Also, the GI50 in the experiment with UACC-62 is > 100 µM (inactive).

Take `N/N=C(\CCN1CCCC1)CC(c1ccccc1)c1c(O)c2ccccc2oc1=O` (stereo unspecified): the GI50 was > 100 µM (inactive) in the experiment with 786-0; 44.2 µM (inactive) in the experiment on EKVX; greater than 100 µM in the experiment with HCT-15; > 100 µM (inactive) in the experiment on IGROV-1; > 100 µM (inactive) in the experiment on KM12; > 100 µM (inactive) with LOX IMVI. Further, the GI50 in the experiment with M14, in the experiment on Malme-3M, in the experiment with NCI-H23, in the experiment with NCI-H522, in the experiment with OVCAR-5 and in the experiment with SK-MEL-5 was > 100 µM (inactive) throughout. Also, the GI50 in the experiment on SN12C, in the experiment on SW-620, in the experiment on UACC-257 and in the experiment with UACC-62 was > 100 µM (inactive) in each case.

For `C=CC(C)(C)C(=C)C(=O)Nc1ccccc1I`, the GI50 in the experiment on 786-0 was 2.29 µM (inactive); with EKVX, 83.9 µM (inactive); with HCT-15, greater than 100 µM; in the experiment with KM12 it was > 100 µM (inactive); in the experiment with LOX IMVI, 73.6 µM (inactive); with M14, > 100 µM (inactive). Besides, the GI50 in the experiment with MDA-MB-231, in the experiment with MDA-MB-435, with MDA-N, with NCI-H23, in the experiment on OVCAR-5 and in the experiment on SK-MEL-5 was > 100 µM (inactive) each time. The GI50 in the experiment on SN12C, in the experiment with SW-620, with UACC-257 and in the experiment on UACC-62 was > 100 µM (inactive) in each case.

On to `CSc1nc(C)cc(N(C)c2ccccc2)n1`, for which the GI50 in the experiment on 786-0 is 38.5 µM (inactive); in the experiment with EKVX it was 37.8 µM (inactive); in the experiment with HCT-15, 38.4 µM; with IGROV-1, 36.9 µM (inactive); in the experiment on KM12, 1.73 µM (inactive); in the experiment with LOX IMVI it was 21.1 µM (inactive). In addition, the GI50 in the experiment on M14 was 30.1 µM (inactive); in the experiment on MDA-MB-231, 34.8 µM (inactive); in the experiment with MDA-MB-435 it was 22.5 µM (inactive); in the experiment on MDA-N it was 24.1 µM (inactive); in the experiment on Malme-3M, 63.7 µM (inactive); in the experiment with NCI-H23 it was 27.9 µM (inactive). For the same molecule, the GI50 is 65.6 µM (inactive) in the experiment with NCI-H522; > 100 µM (inactive) with OVCAR-5; 25.6 µM (inactive) with SK-MEL-5; 41.8 µM (inactive) in the experiment on SN12C; 54.5 µM (inactive) in the experiment on SW-620; 31.6 µM (inactive) in the experiment on UACC-257. For the same molecule, the GI50 in the experiment on UACC-62 was 35.3 µM (inactive).

Turning to `CC(C)c1ccccc1NC(=O)CCc1n[nH]c(=S)o1`, the GI50 is > 100 µM (inactive) with 786-0; > 100 µM (inactive) with EKVX; greater than 41.7 µM in the experiment on HCT-15; > 100 µM (inactive) in the experiment with IGROV-1; > 100 µM (inactive) with KM12; > 100 µM (inactive) in the experiment with LOX IMVI. Further, the GI50 with M14, in the experiment on Malme-3M, in the experiment on NCI-H23, in the experiment with NCI-H522, in the experiment on OVCAR-5 and in the experiment with SK-MEL-5 was > 100 µM (inactive) each time. The GI50 with SN12C is > 100 µM (inactive); in the experiment with SW-620 it was > 37.4 µM (inactive); in the experiment on UACC-257, > 100 µM (inactive); with UACC-62, > 100 µM (inactive).

Take `Cc1nc2ccccc2[s+]c1-c1cnc(NC#N)nc1C(=O)Nc1cccc(Cl)c1`: the GI50 in the experiment with 786-0 was > 100 µM (inactive); with EKVX it was > 100 µM (inactive); in the experiment with HCT-15, greater than 100 µM; in the experiment on IGROV-1, > 100 µM (inactive); in the experiment on KM12, > 100 µM (inactive); in the experiment on LOX IMVI, > 100 µM (inactive). Moreover, the GI50 in the experiment with M14, in the experiment on Malme-3M, in the experiment with NCI-H23, in the experiment on NCI-H522, with OVCAR-5 and in the experiment with SK-MEL-5 was > 100 µM (inactive) throughout. Further, the GI50 in the experiment with SN12C, in the experiment with SW-620, in the experiment on UACC-257 and in the experiment with UACC-62 was > 100 µM (inactive) in each case.

On to `Cc1ccc(S(=O)(=O)OC2CS[S+]([O-])CC2OS(=O)(=O)c2ccc(C)cc2)cc1` (stereo unspecified), for which the GI50 was 16.8 µM (inactive) in the experiment on 786-0; 21.1 µM (inactive) with EKVX; 19 µM in the experiment on HCT-15; 18 µM (inactive) in the experiment on IGROV-1; 17.3 µM (inactive) with KM12; 12.1 µM (inactive) in the experiment on LOX IMVI. In addition, the GI50 in the experiment on M14 is 14.3 µM (inactive); in the experiment with Malme-3M, 14.6 µM (inactive); in the experiment with NCI-H23, 14.7 µM (inactive); in the experiment with NCI-H522, 10.3 µM (inactive); in the experiment with OVCAR-5 it was 18.2 µM (inactive); in the experiment on SK-MEL-5, 16 µM (inactive). The GI50 in the experiment on SN12C is 15.2 µM (inactive); in the experiment on SW-620, 6.55 µM (inactive); in the experiment with UACC-257 it was 14.6 µM (inactive); in the experiment with UACC-62 it was 15.3 µM (inactive).

On to `CCCNCCCCC(NC(C)=O)C(=O)NCc1ccccc1` (stereo unspecified), for which the GI50 is > 100 µM (inactive) in the experiment on 786-0; > 100 µM (inactive) in the experiment with EKVX; greater than 100 µM in the experiment with HCT-15; > 100 µM (inactive) in the experiment on IGROV-1; > 100 µM (inactive) in the experiment on KM12; > 100 µM (inactive) with LOX IMVI. Also, the GI50 in the experiment on M14, with Malme-3M, with NCI-H23, with NCI-H522, with OVCAR-5 and with SK-MEL-5 was > 100 µM (inactive) throughout. Further, the GI50 in the experiment on SN12C, in the experiment on SW-620, in the experiment with UACC-257 and with UACC-62 was > 100 µM (inactive) in each case.

With `COC1=CCC2=C(CCN(C(=O)C3CC3)C2Cc2ccc(OC)c(O)c2)C1` (stereo unspecified), the GI50 in the experiment on 786-0 was 92.9 µM (inactive); with EKVX it was 47.1 µM (inactive); in the experiment with HCT-15 it was 22.1 µM; in the experiment with IGROV-1, 52 µM (inactive); in the experiment on KM12, 37.2 µM (inactive); in the experiment with LOX IMVI, 86.7 µM (inactive). The GI50 is 45 µM (inactive) with M14; 63.2 µM (inactive) in the experiment with MDA-MB-231; 23.9 µM (inactive) in the experiment on MDA-MB-435; 88.9 µM (inactive) with Malme-3M; 26.7 µM (inactive) in the experiment on NCI-H23; 28.8 µM (inactive) in the experiment with NCI-H522. Moreover, the GI50 in the experiment on OVCAR-5 was > 100 µM (inactive); in the experiment with SK-MEL-5, 28.6 µM (inactive); in the experiment on SN12C, 49.3 µM (inactive); with SW-620, 29 µM (inactive); with UACC-257, 47.9 µM (inactive); in the experiment with UACC-62 it was 48.8 µM (inactive).
